Like-named read-outs stand apart in the source and are kept apart here.
Key:
in vitro = details: mouse
[1] = male SD rats, oral [^14C]-11c 5 mg/kg
Procedure: Following blood collection, each anesthetized animal was euthanized by CO2 inhalation and carcasses were submerged in a dry ice/hexane bath. Frozen carcasses were stored at approximately -20 °C until processed for QWBA. Duplicate aliquots of approximately 0.1 g whole blood were weighed into combustion boats for analysis by LSC. Duplicate aliquots of approximately 0.1 mL plasma were weighed into scintillation vials and mixed with an appropriate volume of scintillation cocktail for analysis by LSC. The frozen carcasses were individually set in a mold, submerged in 5% (w/v) low viscosity carboxymethylcellulose (CMC), and embedded by placing the stage (mold) in a dry ice/hexane bath. […] Sagittal, 30-µm thick sections of the CMC-embedded carcasses, including QC standards, and of the CMC-embedded calibration standards were sectioned using a Vibratome 9800 Cryomicrotome (Vibratome; St. Louis, MO) with the temperature maintained at approximately -20 °C. […] The IPs were exposed for approximately 4 days while stored at room temperature in a lead-shielded box to minimize background radiation. Digitized phosphor images (autoradioluminograms) were generated in a dark room with subdued lighting using a GE Healthcare Typhoon 7000 Phosphor Imager (Raytest GmbH; Berlin, Germany) and analyzed using AIDA software (Raytest GmbH).

[2] = 3weeks
HFD-fed C57BL/6J mice = assay: DIO mice: liver histology (H&E), NAFLD activity score (steatosis, inflammation, ballooning); format: in vivo, mouse; design: key to Steatosis (NAFLD Activity Score), individual animals / Steatosis score, group mean: steatosis score 0-3 (0 <5% to 3 >66% fat accumulation); key to Total NAFLD Activity Score, difference between medians: Actual (treated vs. Vehicle): total NAS, 0-8 scale (sum of steatosis, inflammation, ballooning); details: DIO mice; for Lobular inflammation score, Mean Diff. (Vehicle vs. treated) / Steatosis score, Mean Diff. (Vehicle vs. treated) / Total NAFLD Activity Score, Mean Diff. (Vehicle vs. treated): Dunnett's multiple comparisons test; for Lobular inflammation score, group mean / Steatosis score, group mean: PO
Description: Epididymal, inguinal, and liver were harvested, fixed in 10% (w/v) neutral buffered formalin solution (Sigma-Aldrich), and embedded in paraffin. Five-micron-thick tissue sections were deparaffinized, rehydrated, and stained with hematoxylin and eosin (H&E)[10]. The total NAFLD activity score (NAS) is a widely used measure of grading for steatosis, lobular inflammation, and ballooning. The total NAS ranges from 0-8 and is the sum of unweighted scores for steatosis (0: <5%, 1: 5 ~ 33%, 2: 33 ~ 66%, 3: >66% fat accumulation in the liver), lobular inflammation (0: no foci inflammation in x200 field, 1: <2 foci inflammation, 2: 2 ~ 4 foci inflammation, 3: >4 foci inflammation), and hepatocellular ballooning (0: none, 1: few ballooning cells, 2: prominent ballooning cells). MASH was diagnosed when NAS was >5, while non-MASH was diagnosed when NAS was <4. According to the MASH CRN scoring system, a certified pathologist determined the NAS[39]. The histological scoring was performed blindly, without knowledge of any other information.

5HT7 (h) = biological target: T1, 5HT7 (h) (Homo sapiens, UniProt P34969); assay: 5HT subtype antagonism assay (Eurofins Cerep): 5HT7; format: cell-based
T1 construct: host or cells: CHO cells
T1 sequence (P34969 whole entry): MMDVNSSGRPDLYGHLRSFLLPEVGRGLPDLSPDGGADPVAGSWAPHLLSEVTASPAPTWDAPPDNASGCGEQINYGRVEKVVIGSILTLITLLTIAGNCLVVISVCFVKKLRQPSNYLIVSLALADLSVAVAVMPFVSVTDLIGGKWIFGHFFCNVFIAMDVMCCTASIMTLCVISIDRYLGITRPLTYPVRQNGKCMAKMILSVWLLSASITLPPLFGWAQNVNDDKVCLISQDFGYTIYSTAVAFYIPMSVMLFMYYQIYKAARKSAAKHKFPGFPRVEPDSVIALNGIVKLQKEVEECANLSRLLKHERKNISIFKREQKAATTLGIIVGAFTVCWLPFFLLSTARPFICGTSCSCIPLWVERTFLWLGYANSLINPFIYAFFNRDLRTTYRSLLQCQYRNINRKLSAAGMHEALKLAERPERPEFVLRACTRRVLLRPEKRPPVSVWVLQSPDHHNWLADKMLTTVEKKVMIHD
Procedure: The derivatives were evaluated at a concentration of 1 μM for their antagonist activity on the 5HT2A receptor (Tables 1–3)[33],[34]. Human 5HT2A stably transfected HEK293 cells (a type of cell derived from kidney embryos)[20] were seeded in a 96-well plate (Costar; 3603) at a density of 9 × 10^4 in 100 μL of minimum essential medium (Welgene; LM007-86) containing 10% dialyzed fetal bovine serum (Gibco; 30067–334) and 1% penicillin/streptomycin (Gibco; 15140-122) and kept in a 37 °C incubator for 24 h. The cells were stained with 100 μL of cytosolic calcium dye using the FLIPR calcium 6 assay solution (Molecular devices, #R8190) supplemented with 2.5 mM probenecid (Sigma; P8761) and incubated for 1 h at 37 °C. After 1 h, the designated amount of the compound was treated in each well and incubated for another 1 h at 37 °C. Then, the cells were loaded in a Flexstation 3 microplate reader (Molecular Devices; FlexStaion) and 50 μL of 5 μM 5HT (serotonin hydrochloride, Sigma; H9523) was injected from a source plate (Nunc 96-well polystyrene conical bottom MicroWell Plate, Thermo; 249662) and the fluorescence intensity (Ex/Em-485nm/ 525 nm) was measured. […]
Antagonism assay Source Stimulus Incubation Measured Detection Method […]

With `Cc1nc2n(c(=O)c1CCN1CCC(=C3c4ccc(Cl)cc4CCc4cccnc43)CC1)CCCC2O` (stereo not drawn) [Compound 11c] the IC50 (in vitro) was > 100 µM, the “AUC0-t (ng equiv./g)” value ([1]; Adrenal gland) was 7210 ng equiv./g and the “Cmax (ng equiv./g)” value ([1]; Adrenal gland) was 1510 ng equiv./g. For the same compound, the “Tissue: plasma ratio based on AUC0-t” value ([1]; Adrenal gland) was 9.21, the “Tmax” value ([1]; Adrenal gland) was 6 h and the “Cmax (ng equiv./g)” value ([1]; Brain, BQL = below the lower limit of quantitation 148 ng equiv./g) was “BQL”. For the same compound, the “Cmax (ng equiv./g)” value ([1]; Brain, BQL = below the lower limit of quantitation 148 ng equiv./g, listed as [^14C]-compound 11c) was “below the lower limit of quantitation”, the “AUC0-t (ng equiv./g)” value ([1]; Heart) was 1800 ng equiv./g and the “Cmax (ng equiv./g)” value ([1]; Heart) was 369 ng equiv./g. For the same compound, the “Tissue: plasma ratio based on AUC0-t” value ([1]; Heart) was 2.30, the “Tmax” value ([1]; Heart) was 6 h and the “AUC0-t (ng equiv./g)” value ([1]; Kidney) was 7860 ng equiv./g. For the same compound, the “Cmax (ng equiv./g)” value ([1]; Kidney) was 1840 ng equiv./g, the “Tissue: plasma ratio based on AUC0-t” value ([1]; Kidney) was 10.0 and the “Tmax” value ([1]; Kidney) was 6 h. The “AUC0-t (ng equiv./g)” value ([1]; Large Intestine) was 127000 ng equiv./g, the “Cmax (ng equiv./g)” value ([1]; Large Intestine) was 9800 ng equiv./g and the “Tissue: plasma ratio based on AUC0-t” value ([1]; Large Intestine) was 162. The “Tmax” value ([1]; Large Intestine) was 6 h, the “AUC0-t (ng equiv./g)” value ([1]; Liver) was 15400 ng equiv./g and the “Cmax (ng equiv./g)” value ([1]; Liver) was 2920 ng equiv./g. For the same compound, the “Tissue: plasma ratio based on AUC0-t” value ([1]; Liver) was 19.7, the “Tmax” value ([1]; Liver) was 6 h and the “AUC0-t (ng equiv./g)” value ([1]; Lung) was 4290 ng equiv./g. For the same compound, the “Cmax (ng equiv./g)” value ([1]; Lung) was 941 ng equiv./g, the “Tissue: plasma ratio based on AUC0-t” value ([1]; Lung) was 5.48 and the “Tmax” value ([1]; Lung) was 6 h. The “AUC0-t (ng equiv./g)” value ([1]; Pancreas) was 15400 ng equiv./g, the “Cmax (ng equiv./g)” value ([1]; Pancreas) was 4330 ng equiv./g and the “Tissue: plasma ratio based on AUC0-t” value ([1]; Pancreas) was 19.7. For the same compound, the “Tmax” value ([1]; Pancreas) was 6 h, the “AUC0-t (ng equiv./g)” value ([1]; Plasma) was 783 ng equiv./g and the “Cmax (ng equiv./g)” value ([1]; Plasma) was 225 ng equiv./g. The “Tissue: plasma ratio based on AUC0-t” value ([1]; Plasma) was 1.00, the “Tmax” value ([1]; Plasma) was 0.5 h and the “AUC0-t (ng equiv./g)” value ([1]; Small Intestine) was 16600 ng equiv./g. For the same compound, the “Cmax (ng equiv./g)” value ([1]; Small Intestine) was 45000 ng equiv./g, the “Tissue: plasma ratio based on AUC0-t” value ([1]; Small Intestine) was 21.2 and the “Tmax” value ([1]; Small Intestine) was 0.25 h. The “AUC0-t (ng equiv./g)” value ([1]; Spleen) was 9520 ng equiv./g, the “Cmax (ng equiv./g)” value ([1]; Spleen) was 2290 ng equiv./g and the “Tissue: plasma ratio based on AUC0-t” value ([1]; Spleen) was 12.2. For the same compound, the “Tmax” value ([1]; Spleen) was 6 h, the “AUC0-t (ng equiv./g)” value ([1]; Stomach) was 5130 ng equiv./g and the “Cmax (ng equiv./g)” value ([1]; Stomach) was 3240 ng equiv./g. The “Tissue: plasma ratio based on AUC0-t” value ([1]; Stomach) was 6.55, the “Tmax” value ([1]; Stomach) was 0.25 h and the “AUC0-t (ng equiv./g)” value ([1]; Whole Blood) was 589 ng equiv./g. For the same compound, the “Cmax (ng equiv./g)” value ([1]; Whole Blood) was 158 ng equiv./g, the “Tissue: plasma ratio based on AUC0-t” value ([1]; Whole Blood) was 0.75 and the “Tmax” value ([1]; Whole Blood) was 0.5 h. The Chemical stability ([2]; 25 °C) was 99.8%, the Chemical stability ([2]; 60 °C) was 99.6% and the “steatosis, lobular inflammation, and hepatocyte ballooning in liver tissue (H&E)” value (HFD-fed C57BL/6J mice; 5 and 10 mpk, dose-dependent manner) was “markedly reduced”. The “Hepatocyte ballooning score, difference between medians: Actual (treated vs. Vehicle)” value (HFD-fed C57BL/6J mice; 5mpk) was 0, the “Lobular inflammation score, difference between medians: Actual (treated vs. Vehicle)” value (HFD-fed C57BL/6J mice; 5mpk) was -0.5 and the “Steatosis score, difference between medians: Actual (treated vs. Vehicle)” value (HFD-fed C57BL/6J mice; 5mpk) was 0. The “Total NAFLD Activity Score, difference between medians: Actual (treated vs. Vehicle)” value (HFD-fed C57BL/6J mice; 5mpk) was -1.5, the “Lobular inflammation score, Mean Diff. (Vehicle vs. treated)” value (HFD-fed C57BL/6J mice; 5mpk) was 0.3333 and the “Steatosis score, Mean Diff. (Vehicle vs. treated)” value (HFD-fed C57BL/6J mice; 5mpk) was 0. For the same compound, the “Total NAFLD Activity Score, Mean Diff. (Vehicle vs. treated)” value (HFD-fed C57BL/6J mice; 5mpk) was 1.071, the “Lobular inflammation score, group median” value (HFD-fed C57BL/6J mice; 5mpk, Mann-Whitney analysis) was 1.500, n=6 and the “Steatosis score, group median” value (HFD-fed C57BL/6J mice; 5mpk, Mann-Whitney analysis) was 2.000, n=6. For the same compound, the “Total NAFLD Activity Score, group median” value (HFD-fed C57BL/6J mice; 5mpk, Mann-Whitney analysis) was 5.000, n=7, the “Hepatocyte ballooning score, difference between medians: Actual (treated vs. Vehicle)” value (HFD-fed C57BL/6J mice; 10mpk) was -1 and the “Lobular inflammation score, difference between medians: Actual (treated vs. Vehicle)” value (HFD-fed C57BL/6J mice; 10mpk) was -1. For the same compound, the “Steatosis score, difference between medians: Actual (treated vs. Vehicle)” value (HFD-fed C57BL/6J mice; 10mpk) was -1.5, the “Total NAFLD Activity Score, difference between medians: Actual (treated vs. Vehicle)” value (HFD-fed C57BL/6J mice; 10mpk) was -3.5 and the “Lobular inflammation score, Mean Diff. (Vehicle vs. treated)” value (HFD-fed C57BL/6J mice; 10mpk) was 0.8333. The “Steatosis score, Mean Diff. (Vehicle vs. treated)” value (HFD-fed C57BL/6J mice; 10mpk) was 1.5, the “Total NAFLD Activity Score, Mean Diff. (Vehicle vs. treated)” value (HFD-fed C57BL/6J mice; 10mpk) was 3.667 and the “Hepatocyte ballooning score, group median” value (HFD-fed C57BL/6J mice; 10mpk, Mann-Whitney analysis) was 1.000, n=6. For the same compound, the “Lobular inflammation score, group median” value (HFD-fed C57BL/6J mice; 10mpk, Mann-Whitney analysis) was 1.000, n=6, the “Steatosis score, group median” value (HFD-fed C57BL/6J mice; 10mpk, Mann-Whitney analysis) was 0.5000, n=6 and the “Total NAFLD Activity Score, group median” value (HFD-fed C57BL/6J mice; 10mpk, Mann-Whitney analysis) was 3.000, n=6. The “Lobular inflammation score, group mean” value (HFD-fed C57BL/6J mice; 5mpk) was 1.5, the “Steatosis score, group mean” value (HFD-fed C57BL/6J mice; 5mpk, 5 mg/kg) was 2 and the “Steatosis score, group mean” value (HFD-fed C57BL/6J mice; 10mpk) was 0.5. For the same compound, the “Lobular inflammation score, group mean” value (HFD-fed C57BL/6J mice; 10mpk, 10 mg/kg) was 1, the “Selectivity 7: % inhibition” value (5HT7 (h); concentration not given) was 91% and the IC50 (5HT7 (h); read-out: Selectivity 7: IC50) was 0.1 µM.

Source: paper PMC10799935, “Discovery of a peripheral 5HT2A antagonist as a clinical candidate for metabolic dysfunction-associated steatohepatitis” (Nature Communications, 2024)
